Measurements from the CheMixHub ionic liquid set.

Assay: xn = mol fraction of the nth substance listed
Conditions: 101 kPa

CCCC[n+]1ccn(C)c1.F[P-](F)(F)(F)(F)F + ClC(Cl)Cl
298.15 K
Conditions	electrical conductivity [S/m]	viscosity [mPa·s]
x2 = 0	0.157	260
x2 = 0.0857	0.199	200
x2 = 0.1741	0.253	144
x2 = 0.2614	0.319	103
x2 = 0.3625	0.411	68.4
x2 = 0.4608	0.519	43
x2 = 0.5633	0.644	25
x2 = 0.6683	0.726	13.1
x2 = 0.7326	0.729	10

CCCC[n+]1ccn(C)c1.O=S(=O)([N-]S(=O)(=O)C(F)(F)F)C(F)(F)F + ClCCl
Conditions	viscosity [mPa·s]
298 K, x2 = 0	50.4

CC#N + Cn1cc[n+](CCCN)c1.F[B-](F)(F)F
x2 = 0
Conditions	viscosity [mPa·s]
288.15 K	0.439
293.15 K	0.403
298.15 K	0.371
303.15 K	0.345
308.15 K	0.322
313.15 K	0.3
318.15 K	0.282
323.15 K	0.265

CCCC[n+]1ccn(C)c1.O=S(=O)([N-]S(=O)(=O)C(F)(F)F)C(F)(F)F + N
Conditions	viscosity [mPa·s]
313.2 K, x1 = 1	27.3

CCCC[n+]1ccn(C)c1.F[P-](F)(F)(F)(F)F + NCCO
Conditions	electrical conductivity [S/m]	viscosity [mPa·s]
288.15 K, x2 = 0.8022	0.1847	45
288.15 K, x2 = 0.9028	0.1368	36
293.15 K, x2 = 0.3052	0.222	103
293.15 K, x2 = 0.387	0.236	–
293.15 K, x2 = 0.5871	0.268	–
293.15 K, x2 = 0.9592	0.1028	–
298.15 K, x2 = 0	0.1851	182
298.15 K, x2 = 0.2113	0.256	92
298.15 K, x2 = 0.3052	0.292	76
298.15 K, x2 = 0.5352	0.337	–
298.15 K, x2 = 0.8022	0.313	26
303.15 K, x2 = 0.6984	0.434	26
308.15 K, x2 = 0.387	0.506	–
308.15 K, x2 = 0.4282	0.511	35
308.15 K, x2 = 0.4761	0.541	–
313.15 K, x2 = 0.3052	0.602	35
313.15 K, x2 = 0.4761	0.669	–
313.15 K, x2 = 0.5352	0.679	–
313.15 K, x2 = 0.9592	0.25	–
318.15 K, x2 = 0.3052	0.733	28
318.15 K, x2 = 0.4282	0.773	22.1
318.15 K, x2 = 0.4918	0.796	19.5
323.15 K, x2 = 0	0.504	48
323.15 K, x2 = 0.3052	0.875	23.1
323.15 K, x2 = 0.4761	0.967	–
323.15 K, x2 = 0.5352	0.977	–
